This is an account of results in patent US9073858B2, “Methods of targeted drug development” (priority 2010, dated 2015).

The target in assay [1] is T1, EGFR (Homo sapiens, UniProt P00533).
T1 construct: endogenous in cells; host or cells: A431 cells (ATCC CRL-1555)
The experiment in a line: EGFR in-cell Western (ICW) screening protocol. It counts as cell-based. More on the design: unit not given here. To be noted: initial screen. The gist of the method:
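Serum-starved cells treated with compound 4 h at 37 °C, then stimulated with EGF (20 or 0 ng/ml solution added) in its continued presence. In-cell Western on fixed cells: phospho-EGFR (800 channel) normalised to total EGFR (700 channel), % inhibition calculated against EGF-stimulated and unstimulated no-compound wells.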

For assay [2], the system named is epithelial carcinoma A431 cell line. Briefly: MTT Cell Proliferation Assay, A431 cell line. It counts as cell-based. As to conditions: for IC50: Homo sapiens. The gist of the method: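 Cells plated overnight, then exposed 3 days at 37 °C, 5% CO2 to compound in growth medium with 0.5% FBS and 0.5% DMSO final (0.5% DMSO as control).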

Where two headings read alike, the source gives them in different places.

T1 sequence (P00533 25-1210): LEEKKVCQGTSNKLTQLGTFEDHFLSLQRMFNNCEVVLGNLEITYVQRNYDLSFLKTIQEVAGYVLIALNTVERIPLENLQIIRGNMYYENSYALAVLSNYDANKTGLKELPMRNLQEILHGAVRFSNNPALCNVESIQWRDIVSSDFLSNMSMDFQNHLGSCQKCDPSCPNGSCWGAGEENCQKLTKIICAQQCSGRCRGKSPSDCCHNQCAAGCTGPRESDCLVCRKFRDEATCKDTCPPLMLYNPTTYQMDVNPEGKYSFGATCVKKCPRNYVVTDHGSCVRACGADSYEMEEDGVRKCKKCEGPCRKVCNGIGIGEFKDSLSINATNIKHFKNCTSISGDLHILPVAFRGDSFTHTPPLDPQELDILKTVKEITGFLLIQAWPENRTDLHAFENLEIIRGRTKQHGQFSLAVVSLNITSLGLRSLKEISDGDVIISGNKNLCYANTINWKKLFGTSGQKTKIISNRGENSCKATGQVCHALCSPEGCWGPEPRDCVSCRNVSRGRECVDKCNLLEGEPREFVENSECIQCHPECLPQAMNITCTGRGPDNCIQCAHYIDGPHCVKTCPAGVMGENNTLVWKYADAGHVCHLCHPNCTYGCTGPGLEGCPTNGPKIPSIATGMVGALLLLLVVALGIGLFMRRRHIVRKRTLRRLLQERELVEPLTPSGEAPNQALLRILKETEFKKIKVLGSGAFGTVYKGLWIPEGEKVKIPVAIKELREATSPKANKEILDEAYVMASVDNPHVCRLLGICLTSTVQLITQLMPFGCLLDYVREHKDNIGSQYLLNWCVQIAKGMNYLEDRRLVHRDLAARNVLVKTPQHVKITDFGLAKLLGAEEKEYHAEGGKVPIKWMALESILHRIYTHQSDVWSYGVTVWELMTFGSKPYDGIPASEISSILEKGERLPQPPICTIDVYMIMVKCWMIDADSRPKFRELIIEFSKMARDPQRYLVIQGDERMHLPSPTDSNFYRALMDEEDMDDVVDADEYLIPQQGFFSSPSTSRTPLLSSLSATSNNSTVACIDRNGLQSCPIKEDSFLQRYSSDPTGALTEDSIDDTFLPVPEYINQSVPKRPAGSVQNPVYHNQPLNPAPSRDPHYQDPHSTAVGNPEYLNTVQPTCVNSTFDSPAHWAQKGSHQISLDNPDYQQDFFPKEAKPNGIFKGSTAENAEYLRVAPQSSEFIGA

As to `Oc1c(C(Nc2ccccn2)c2ccc(C(F)(F)F)cc2)ccc2cccnc12` (centres unmarked) [compound 10460], the “ICW Screen” value in assay [1] turned out to be 23.17. Moreover, in assay [2] (10 point follow-up, value in brackets, numerically MDBK over A431), the “MTT (10 Point follow-up) ratio” value is 1.34. In addition, the “MTT-72 h A431/MDBK (ratio)” value in assay [2] (72 h, value in brackets, numerically MDBK value over A431 value) was 1.84. Besides, the IC50 in assay [2] (A-431, 10 point follow-up, first value of pair, read-out: MTT (10 Point follow-up) A431) was 279 nM; in assay [2] (A-431, 72 h, 72 h, first value of A431/MDBK pair, read-out: MTT-72 h A431) it was 290 nM.
